The logP is the decadic logarithm of the partition coefficient of the neutral form, usually between octanol and water. A low value points to a more hydrophilic compound. `Cc1cc(N)c(C)c(O)c1C(=O)O` had a logP of 3.38.

`CC(=O)c1ccc(S(=O)(=O)NC(=O)NC2CCCCC2)cc1`: the logP is 2.44. On to `CC(=O)C(C#N)=NNc1cc(Cl)cc(Cl)c1`, for which the log partition coefficient (logP) was 4.68. As for `CCC1(CC)C(=O)NC(=O)NC1=O`, the figure is 0.65. For `CN(C)N=O`, the logP was -0.57. As for `CCC(Cc1ccccn1)C(N)=O` (stereo unspecified), the figure is -0.01.

`CN(C)C(=O)c1ccccc1` gave a logP of 0.62. As for `CNC(=O)Oc1cc(C)cc(C)c1`, the figure is 2.23. `CC(C)NCC(O)c1ccc(NS(C)(=O)=O)cc1` (stereo unspecified) gave a logP of 0.24. For `NNC(=O)c1ccncc1`, the logP was -0.7. Take `Nc1ncnc2c1ncn2[C@H]1C=C[C@@H](CO)O1`: the logP was -0.5. As for `C=C`, the figure is 1.13; as for `O=[N+]([O-])c1cc[n+]([O-])c2ccc(Cl)cc12`, 1.41.

Molecule `Nc1ccccc1O` had a logP of 0.62. In the case of `C/C=N/O`, the logP was -0.13. As for `NCC(F)(F)F`, the figure is 0.24; as for `CC(C)CN`, 0.73; as for `O=C1NS(=O)(=O)c2ccccc21`, 0.91. For the molecule `CN1C(=O)NC(=O)C(C)(C2=CCCCC2)C1=O` (stereo unspecified), the logP is 1.98. In turn, `CNC(=O)Oc1ccc(C)cc1` yielded a logP of 1.66.

Take `CC(C)N(N=O)C(C)C`: the logP came to 1.38.

With `O=[N+]([O-])c1cc(Br)c(O)c(Br)c1`, the logP worked out at 3.57. For `CC(C)Sc1nnc(C(C)C)c(=O)n1N`, the logP was 2.06. `Oc1cc(Cl)c(Cl)cc1Cl` showed a logP of 3.72. For `O=C1O[C@H]([C@@H](O)CO)C(O)=C1O`, the logP is -1.85. In the case of `O=C1CN(/N=C/c2ccc([N+](=O)[O-])o2)C(=O)N1`, the logP was -0.47.

`Nc1cccnc1` displayed a logP of 0.11.

Regarding `O=[N+]([O-])c1ccccc1`, the logP is 1.85.

`Clc1cccc(Cl)c1` returned a log partition coefficient (logP) of 3.53.

For `COc1cccc(O)c1`, the logP came to 1.34.

Consider `O=C1C=CC(=O)C=C1`, for which the logP was found to be 0.2. Then `C=CCNCC`, with 0.81; and `C[C@@H]1C[C@H]2[C@@H]3CCC4=CC(=O)C=C[C@]4(C)[C@@]3(F)[C@@H](O)C[C@]2(C)[C@@]1(O)C(=O)CO`, with 1.83; and `CN1c2ccccc2C=CC1O` (stereo unspecified), with 1.45. As for `CCOc1cccc(OC(=O)NC)c1`, the figure is 1.75. In turn, `CNC(=O)Oc1ccccc1I` had a logP of 1.94. Molecule `OCC(F)(F)F` showed a logP of 0.41.

`CC(C)[N+](=O)[O-]`: the logP was found to be 0.93. As to `Nc1cccc2ncccc12`, the logP worked out at 1.16. In turn, `COc1cc(CCN)cc(OC)c1OC` returned a log partition coefficient (logP) of 0.78.

`Cc1ccc(S(N)(=O)=O)cc1` displayed a logP of 0.82. With `CN(C)c1ccc(S(N)(=O)=O)cc1`, the logP was 0.76. For the molecule `O=[N+]([O-])/C=C/c1ccccc1`, the logP is 2.11. Consider `O=C1NC(=O)C(c2ccccc2)(c2ccccc2)N1`, for which the logP was determined as 2.47. With `O=[N+]([O-])c1ccc(Br)cc1`, the logP was determined as 2.55. Then `CC/C(=C/c1ccccc1)[N+](=O)[O-]`, with 2.86; and `N[C@@H](Cc1cnc[nH]1)C(=O)O`, with -3.32; and `NC(=O)c1ccc(Cl)cc1`, with 1.55. The molecule `N#Cc1ccc(S(N)(=O)=O)cc1` returned a logP of 0.23. Molecule `O=C(O)Cc1ccc(I)cc1` had a logP of 2.64. Molecule `O=[N+]([O-])c1cccc(O)c1` showed a logP of 2.

Consider `Clc1ccccc1`, for which the logP stood at 2.84. `CCCCCC(=O)O` yielded a logP of 1.92. As for `O=[N+]([O-])c1cccc2ccccc12`, the figure is 3.19. `NC(=O)c1ccc(Br)cc1`: the logP amounted to 1.76. `Oc1c(F)c(F)c(F)c(F)c1F` came in with a logP of 3.23. On to `O=C(O)c1cc(I)cc(I)c1O`, for which the logP worked out at 4.56. `Nc1cc(N2CCCCC2)nc(N)[n+]1[O-]` had a logP of 1.24. In turn, `CCCCCOC(N)=O` gave a logP of 1.35. As for `CNC(=O)Oc1cc(C)ccc1C(C)C`, the figure is 3.11; as for `ClC=C(Cl)Cl`, 2.42. As to `CCCCc1ccc(C(=O)O)nc1`, the logP is -1.29.

Take `ClC(Cl)(Cl)Cl`: the logP worked out at 2.83. `CNC(=O)Oc1ccc2c(c1)[C@]1(C)CCN(C)[C@@H]1N2C` returned a logP of 1.58. As for `Cc1cc(C)c(C)cc1C`, the figure is 4. Molecule `FCF` came in with a logP of 0.2. Molecule `c1ccc2c(c1)Nc1ccccc1S2` came in with a logP of 4.15. Molecule `COC(=O)C(C#N)=NNc1cc(Cl)c(Cl)c(Cl)c1` registered a logP of 5.22. For `CC(C)(C)COC(N)=O`, the logP amounted to 0.94. As for `Nc1ccc(Oc2ccccc2)cc1`, the figure is 2.96; as for `O=C(O)c1cccc(Cl)c1`, 2.68; as for `c1ncc2[nH]cnc2n1`, -0.37. Then `O=C(O)COc1ccc(Cl)cc1`, with 2.25; and `CN1CCC(=C2c3ccccc3C=Cc3ccccc32)CC1`, with 4.69. The molecule `Brc1ccc2ncccc2c1` had a logP of 2.83. `Cc1cccc(C)c1O`: the logP stood at 2.36. As to `O=C(O)c1cccc2ccccc12`, the logP was found to be 3.1.

As for `CCCCCC1Nc2cc(C(F)(F)F)c(S(N)(=O)=O)cc2S(=O)(=O)N1` (stereo unspecified), the logP stood at 2.66. `CCOC(=O)C(C#N)=NNc1ccc(Cl)c(Cl)c1` gave a logP of 4.66.

Take `N#Cc1ccc(OCC(=O)O)cc1`: the logP amounted to 0.93. As to `O=[N+]([O-])/C=C/c1cc([N+](=O)[O-])ccc1Cl`, the logP came to 2.23. For the molecule `Cc1ccc(CC(=O)O)cc1`, the logP worked out at 1.86. The molecule `CC[C@@H]1C(=O)OC[C@@H]1Cc1cncn1C` showed a logP of 0.12. Regarding `O=C(O)c1cccc(F)c1`, the log partition coefficient (logP) turned out to be 2.15.

Consider `O=[N+]([O-])c1cccc2ccc[n+]([O-])c12`, for which the logP came out at 0.04. Consider `Fc1c(F)c(F)c(F)c(F)c1F`, for which the logP stood at 2.55.

As to `Nc1ccc2ncccc2c1`, the logP worked out at 1.28.

The molecule `N#Cc1ccc([N+](=O)[O-])cc1` yielded a logP of 1.19. With `Oc1c(Br)cc(Br)c(O)c1Br`, the logP stood at 4.37. Regarding `O=c1ccn([C@H]2CC[C@@H](CO)O2)c(=O)[nH]1`, the logP is -1. For the molecule `CN(C)C(=O)Nc1cccc(Cl)c1`, the lipophilicity (logP) was 2. As for `CCN(CC)N=O`, the figure is 0.48. In the case of `CCCN(CC)CCC`, the logP came out at 2.68. As for `O=C(O)COc1cccc(C(F)(F)F)c1`, the logP worked out at 2.36. In the case of `CSc1nnc(CCC(C)C)c(=O)n1N`, the logP came to 1.85.

The molecule `Clc1ccc(-c2ccccc2)cc1` gave a logP of 4.61.

In the case of `CCCCCBr`, the logP was found to be 3.37.

Take `CCc1cccc(OC(=O)NC)c1`: the logP was found to be 2.2. In the case of `CNC(=O)OC`, the logP is -0.06.

In the case of `CC(=O)c1ccccc1O`, the logP is 1.92.

The molecule `CCOC(=O)C=Cc1ccccc1` showed a logP of 2.99. Then `CNC(=O)c1ccccc1`, with 0.86; and `CC(=O)S[C@@H]1CC2=CC(=O)CC[C@]2(C)[C@H]2CC[C@@]3(C)[C@@H](CC[C@@]34CCC(=O)O4)[C@H]12`, with 2.78; and `O=C1CN=C(c2ccccc2)c2cc([N+](=O)[O-])ccc2N1`, with 2.25. `COc1ccc(O)cc1` came in with a logP of 1.58. As for `CCCNC(C)CC` (stereo unspecified), the figure is 1.91; as for `O=C(NC(CO)C(O)c1ccc([N+](=O)[O-])cc1)C(F)F` (stereo unspecified), 0.42; as for `CNC(=O)Oc1ccc(C(C)C)c(C)c1`, 3.11. Then `NS(=O)(=O)c1ccccc1Cl`, with 0.74; and `CNS(=O)(=O)c1ccc(N)cc1`, with -0.01; and `[O-][n+]1cccc2ccccc21`, with 0.36. Then `Oc1cccc(F)c1`, with 1.93; and `COc1ccc2c(c1)N(CCCN(C)C)c1ccccc1S2`, with 4.9; and `CCc1ccc(S(N)(=O)=O)cc1`, with 1.31. For `Clc1cccc(-c2ccccc2)c1`, the logP was found to be 4.58. `Nc1ccccc1` displayed a logP of 0.9. As for `OCc1ccc(Cl)cc1`, the logP is 1.96. Take `BrCBr`: the logP turned out to be 1.7.

`CCOC(=O)C(C#N)=NNc1cc(Cl)c(Cl)cc1Cl` returned a logP of 5.21. With `Cc1ccccc1O`, the logP worked out at 1.95.

Consider `CN1C(=O)C(=O)c2ccccc21`, for which the logP was determined as 0.58.

As to `O=C(O)Cc1cccc(I)c1`, the logP is 2.62.

`c1ccsc1`: the logP was found to be 1.81.

As for `O=C(O)c1ccc(I)cc1`, the logP was determined as 3.02. For the molecule `COC(=O)C(C#N)=NNc1ccc(Cl)c(C(F)F)c1`, the logP was determined as 3.8. The molecule `Cc1ccc(C)c2c(C)cccc12` gave a logP of 4.9. For `Cc1ccccc1C`, the logP is 3.12. As for `N#Cc1ccccn1`, the figure is 0.45; as for `CCOC(=O)c1ccccn1`, 0.87; as for `Clc1cccc2cccnc12`, 2.44.

`COC` came in with a logP of 0.1.

`CC(C)C(=O)C(C#N)=NNc1cc(C(F)(F)F)ccc1Cl` displayed a log partition coefficient (logP) of 5.31. `Cc1cccc2c1c([N+](=O)[O-])cc[n+]2[O-]` registered a logP of 1.36.

In turn, `N#Cc1ccccc1O` showed a logP of 1.61. Take `CCC(C)C1(CC)C(=O)NC(=O)NC1=O` (stereo unspecified): the logP came out at 1.65. As for `CC#N`, the logP is -0.34.

In turn, `Oc1ccccc1I` yielded a logP of 2.65. In turn, `c1ccc2sccc2c1` returned a logP of 3.12.

With `CCCCc1ccc(S(N)(=O)=O)cc1`, the logP came to 2.45.

For the molecule `OCCN1CCN(CCCN2c3ccccc3Sc3ccc(C(F)(F)F)cc32)CC1`, the logP was determined as 4.36. For `Cc1cn([C@H]2C[C@H](O)[C@@H](CO)O2)c(=O)[nH]c1=S`, the logP was -0.07. As for `CCC(=O)c1ccccc1`, the figure is 2.19; as for `CC1CCC(NC(=O)N(CCCl)N=O)CC1` (stereo unspecified), 3.3; as for `OC(c1ccccc1)C1CC1` (stereo unspecified), 1.95.

`Cc1ccc(CO)cc1` showed a logP of 1.58. With `c1ccc2cc3ccccc3cc2c1`, the logP stood at 4.45.

(Values after the SangsterLogP compilation.)
